Source: paper PMC9587990, “Molecular basis for isoform-selective inhibition of presenilin-1 by MRK-560” (Nature Communications, 2022)
Where “and” joins values, the source holds several entries; their conditions need not be identical. Equal entries are not always repeated. Where two headings read alike, the source gives them in different places.

Tests used:
[1] = tested on: Aβ production in the brain; parameters: method as in PMID 17099072, PMID 16443723; conditions: cited from earlier work
[2] = molecular target: T1, PS1 TL281-282PI γ-secretase complex (Homo sapiens, UniProt P49768, L282I/T281P); test: in vitro cleavage assay, Aβ40 production by AlphaLISA; assay type: biochemical; conditions: for remaining activity at 0.002 µM / remaining activity at 0.01 µM / remaining activity at 0.04 µM / remaining activity at 0.2 µM / remaining activity at 1 µM / remaining activity at 10 µM: 4 h; for remaining activity at 0.002 µM / remaining activity at 0.01 µM / remaining activity at 0.04 µM / remaining activity at 0.2 µM / remaining activity at 1 µM / remaining activity at 10 µM / Caculated Aβ40 production / raw data from α-Lisa reading: PS1TL 281 282PI
T1 construct: made in house
Method: (§1) In total we generated six variants, including single and double residue swapping of Thr281/Leu282 in PS1 with Pro287/Ile288 in PS2, respectively. MRK-560 response to the six PS1/PS2 mutant-containing complexes, each purified to homogeneity, was examined in the in vitro cleavage assay (Fig. 4). All proteins used for the activity assay were sub-cloned, expressed and purified as described. Protein concentration was determined using the Bradford method. […] The cleavage reaction was conducted at 37 °C for 4 h. The cleaved products of these substrates were detected using a monoclonal antibody (1:1000 dilution, CW0299, CWBio) against the C-terminal Myc tag. Aβ40 production was detected using the AlphaLISA assay (PerkinElmer) as described. The IC50 values and the inhibition curves were calculated using Prism 8.0. Statistical analysis of Aβ40 was performed using Prism 8 (GraphPad Software, San Diego, CA, USA). IC50 were determined by a four-parameter logistic regression. The statistical details can be found in Figs. 1, 4 and legends. Data are expressed as mean ± SD.

[3] = molecular target: T2, PS2 I288L γ-secretase complex (Homo sapiens, UniProt P49810, I288L); test: as above; assay type: biochemical; conditions: for remaining activity at 0.002 µM / remaining activity at 0.04 µM / remaining activity at 0.2 µM / remaining activity at 1 µM / remaining activity at 10 µM / remaining activity at 20 µM: 4 h
T2 construct: made in house
Method: as §1

[4] = molecular target: T3, PS2(PI287-288TL) (Homo sapiens, UniProt P49810, I288L/P287T); test: in vitro cleavage assay, AICD production by western blot; assay type: biochemical; conditions: 200 nM MRK-560, PS2(PI287-288TL)
T3 construct: made in house
Method: (§2) Fig. 4 Thr281 and Leu282 of PS1 determine the isoform selectivity of MRK-560. a–c Individual and double residue swapping of Thr281 and Leu282 in PS1 with the corresponding Pro287 and Ile288 in PS2 alter their respective sensitives to MRK-560 accordingly. IC50 values for MRK-560 inhibition of the indicated PS1 (a) and PS2 (b) mutants were measured using the AlphaLISA assay that detects Aβ40 production. Please refer to Methods for experimental details. Data are presented as mean values ± SD. c Production of AICD by residue-swapped PS1 and PS2 mutants. The amount of AICD generated by the indicated variants in the presence of serial diluted MRK-560 is consistent with the corresponding IC50 shown in (a, b). […] The production of AICD was quantified by ImageJ. Red asterisks indicate the first concentration where the normalized production of AICD was reduced to less than 20%. Source data are provided as a Source Data file. Each cleavage assay was repeated three times. Error bars: SD.
(§3) We also examined the inhibitory effect of MRK-560 on the production of AICD by the PS1/PS2 variants (Fig. 4c).
(§4) All proteins used for the activity assay were sub-cloned, expressed and purified as described. Protein concentration was determined using the Bradford method. […] The cleavage reaction was conducted at 37 °C for 4 h. The cleaved products of these substrates were detected using a monoclonal antibody (1:1000 dilution, CW0299, CWBio) against the C-terminal Myc tag. Aβ40 production was detected using the AlphaLISA assay (PerkinElmer) as described. The IC50 values and the inhibition curves were calculated using Prism 8.0.

[5] = molecular target: T4, PS1 variant T281P (Homo sapiens, UniProt P49768, T281P); test: as above; assay type: biochemical; conditions: 1 μM MRK-560, PS1 T281P
T4 construct: made in house
Method: as §2, §3, §4

[6] = molecular target: T5, PS1 variant L282I (Homo sapiens, UniProt P49768, L282I); test: as above; assay type: biochemical; conditions: 1 μM MRK-560, PS1 L282I
T5 construct: made in house
Method: as §2, §3, §4

[7] = molecular target: T6, PS1 TL281-282PI (Homo sapiens, UniProt P49768, L282I/T281P); test: as above; assay type: biochemical; conditions: 10 μM MRK-560, PS1 TL281-282PI
T6 construct: made in house
Method: as §2, §3, §4

[8] = MRK-560 2 nM, mean of 3 replicates, read-out: Normalized production (control=1), Mean
[9] = MRK-560 2 nM, replicates, read-out: Normalized production (control=1)
[10] = MRK-560 40 nM, mean of 3 replicates, read-out: Normalized production (control=1), Mean
[11] = MRK-560 40 nM, replicates, read-out: Normalized production (control=1)
[12] = MRK-560 200 nM, mean of 3 replicates, read-out: Normalized production (control=1), Mean
[13] = MRK-560 200 nM, replicates, read-out: Normalized production (control=1)
[14] = MRK-560 1 μM, mean of 3 replicates, read-out: Normalized production (control=1), Mean
[15] = MRK-560 1 μM, replicates, read-out: Normalized production (control=1)
[16] = MRK-560 10 μM, mean of 3 replicates, read-out: Normalized production (control=1), Mean
[17] = MRK-560 10 μM, replicates, read-out: Normalized production (control=1)

SMILES: O=S(=O)(NC1CCC(c2cc(F)ccc2F)(S(=O)(=O)c2ccc(Cl)cc2)CC1)C(F)(F)F (stereo not drawn) [MRK-560, N-[cis-4-[(4-chlorophenyl)sulfonyl]-4-(2,5-difluorophenyl)cyclohexyl]-1,1,1-trifluoromethanesulfonamide]
- Aβ production in the brain [1]: reduced
- IC50 [2]: 195 ± 16 nM
- remaining activity at 0.002 µM [2, 8]: 116%
- remaining activity at 0.002 µM [2, 9]: 115%
- remaining activity at 0.01 µM ([2]; MRK-560 10 nM, mean of 3 replicates, read-out: Normalized production (control=1), Mean): 112%
- remaining activity at 0.01 µM ([2]; MRK-560 10 nM, replicates, read-out: Normalized production (control=1)): 113%
- remaining activity at 0.04 µM [2, 10]: 105%
- remaining activity at 0.04 µM [2, 11]: 103%
- remaining activity at 0.2 µM [2, 12]: 57.2%
- remaining activity at 0.2 µM [2, 13]: 59.1%
- remaining activity at 1 µM [2, 14]: 11.1%
- remaining activity at 1 µM [2, 15]: 11%
- remaining activity at 10 µM [2, 16]: 1.33%
- remaining activity at 10 µM [2, 17]: 1.43%
- Caculated Aβ40 production ([2]; MRK-560 2 nM, replicates): 380.9708 and 384.7930 and 381.0949
- raw data from α-Lisa reading ([2]; MRK-560 2 nM, replicates): 58097 and 58620 and 58114
- Caculated Aβ40 production ([2]; MRK-560 10 nM, replicates): 372.0557 and 371.8958 and 369.4343
- raw data from α-Lisa reading ([2]; MRK-560 10 nM, replicates): 56873 and 56851 and 56512
- Caculated Aβ40 production ([2]; MRK-560 40 nM, replicates): 339.5167 and 363.4357 and 337.7821
- raw data from α-Lisa reading ([2]; MRK-560 40 nM, replicates): 52356 and 55684 and 52113
- Caculated Aβ40 production ([2]; MRK-560 200 nM, replicates): 195.2943 and 180.8050 and 191.3579
- raw data from α-Lisa reading ([2]; MRK-560 200 nM, replicates): 31350 and 29146 and 30753
- Caculated Aβ40 production ([2]; MRK-560 1 μM, replicates): 36.3190 and 36.2828 and 37.2900
- raw data from α-Lisa reading ([2]; MRK-560 1 μM, replicates): 6150 and 6144 and 6311
- Caculated Aβ40 production ([2]; MRK-560 10 μM, replicates): 4.7413 and 3.9425 and 4.5046
- raw data from α-Lisa reading ([2]; MRK-560 10 μM, replicates): 864 and 729 and 824
- remaining activity at 0.002 µM [3, 8]: 110%
- remaining activity at 0.002 µM [3, 9]: 110%
- remaining activity at 0.04 µM [3, 10]: 65.9%
- remaining activity at 0.04 µM [3, 11]: 68%
- remaining activity at 0.2 µM [3, 12]: 17.7%
- remaining activity at 0.2 µM [3, 13]: 17.9%
- remaining activity at 1 µM [3, 14]: 5.3%
- remaining activity at 1 µM [3, 15]: 5.2%
- remaining activity at 10 µM [3, 16]: 1.39%
- remaining activity at 10 µM [3, 17]: 1.35%
- remaining activity at 20 µM ([3]; MRK-560 20 μM, mean of 3 replicates, read-out: Normalized production (control=1), Mean): 1.69%
- remaining activity at 20 µM ([3]; MRK-560 20 μM, replicates, read-out: Normalized production (control=1)): 1.61%
- Caculated Aβ40 production ([3]; MRK-560 2 nM, replicates): 534.8273 and 537.0982 and 529.5442
- raw data from α-Lisa reading ([3]; MRK-560 2 nM, replicates): 78346 and 78633 and 77677
- Caculated Aβ40 production ([3]; MRK-560 40 nM, replicates): 330.6964 and 306.7347 and 323.3048
- raw data from α-Lisa reading ([3]; MRK-560 40 nM, replicates): 51118 and 47725 and 50076
- Caculated Aβ40 production ([3]; MRK-560 200 nM, replicates): 87.0033 and 86.1156 and 85.5883
- raw data from α-Lisa reading ([3]; MRK-560 200 nM, replicates): 14434 and 14291 and 14206
- Caculated Aβ40 production ([3]; MRK-560 1 μM, replicates): 25.2908 and 26.2376 and 25.7761
- raw data from α-Lisa reading ([3]; MRK-560 1 μM, replicates): 4315 and 4473 and 4396
- Caculated Aβ40 production ([3]; MRK-560 10 μM, replicates): 6.5772 and 6.8972 and 6.7964
- raw data from α-Lisa reading ([3]; MRK-560 10 μM, replicates): 1174 and 1228 and 1211
- Caculated Aβ40 production ([3]; MRK-560 20 μM, replicates): 7.8160 and 7.8990 and 8.9905
- raw data from α-Lisa reading ([3]; MRK-560 20 μM, replicates): 1383 and 1397 and 1581
- IC50 ([3]; mean ± SD): 57 ± 10 nM
- Generation of AICD [4]: completely inhibited
- Generation of AICD [5]: still detected
- Generation of AICD [6]: still detected
- Generation of AICD [7]: could not be completely inhibited
